Tested on: Jurkat cells derived from human T-cell leukemia
Experiment: cell killing assay by PDT in Jurkat cells (630 nm, Cell Counting Kit-8)
Type: cell-based
Settings: 5-ALA loading 0-1 mmol/L, light irradiation 30 J/cm^2, 630 nm
Method: For Jurkat cells derived from human T-cell leukemia which is a disease classification different from that of the human adult T-cell leukemia/lymphoma clinically, amounts of protoporphyrin IX accumulated in the cells by 5-ALA loading (0, 0.0625, 0.125, 0.25, 0.5 and 1 mmol/L) were measured using the fluorescence detection high-performance liquid chromatography method, and then light irradiation (30 J/cm^2) with a central wavelength of 630 nm was further performed as the cell killing assay by PDT, and then cell viabilities (%) using the cell counting kit (Cell Counting Kit-8) were calculated.

Compound: NCC(=O)CCC(=O)O [5-ALA, 5-aminolevulinic acid]
- cell viabilities versus the regression curve of FIG. 3: located on the regression curve described in FIG. 3
